Experimental data: patent US9884012B2, “Use of PEDF-derived polypeptides for promoting muscle or tendon regeneration or arteriogenesis” (MacKay Memorial Hospital, priority 2012, dated 2018)
Values joined by “and” are separate entries in the source; they are usually repeats but may differ in a detail not shown here. Equal values may be shown once. Marks after values point to notes of the source that are not given here.

How the values were obtained:
ischemic hindlimbs = experiment: hindlimb ischemia model, laser Doppler perfusion imaging of limb blood perfusion; assay type: in vivo, C57BL/6 wild-type mice; details: for Ischemic/Non-ischemic Perfusion Ratio (%) 7 days: 7 days after surgery, 50 μl sustained-release alginate gel formulation, 10 μM peptide (Bolus: bolus formulation of 29-mer), single intramuscular injection to gracilis muscle; for Ischemic/Non-ischemic Perfusion Ratio (%) 21 days: 21 days after surgery; for Ischemic/Non-ischemic Perfusion Ratio (%) 21 days / Ischemic/Non-ischemic Perfusion Ratio (%) 28 days: sustained-release formulation (Bolus: bolus 29-mer), single intramuscular injection; for Ischemic/Non-ischemic Perfusion Ratio (%) 28 days: 28 days (four weeks) after surgery; for Ischemic/Non-ischemic Perfusion Ratio (%) Pre OP: before surgery (baseline); for Ischemic/Non-ischemic Perfusion Ratio (%) Pre OP / Ischemic/Non-ischemic Perfusion Ratio (%) Post OP: LDPI; for Ischemic/Non-ischemic Perfusion Ratio (%) Post OP: immediately after surgery
Method: (§1) 6-week-old female C57BL/6 wild-type mice were anesthetized by an intraperitoneal injection of a mixture of zoletil (6 mg/kg) and xylazine (3 mg/kg). Hair was removed from the hindquarter with a depilating cream. To establish hindlimb ischemia, unilateral external iliac and femoral arteries and veins were ligated, cut, and excised. After surgery, the mice were randomly assigned to several experimental groups (n=6, each group) and treated as follows. In the blank control group, the mice were treated with 50 μl of blank alginate gel, whereas in the bolus control group, the mice received the bolus formulation containing 29-mer. In the PEDF peptide/alginate gel treatment groups, the mice received 50 μl of the sustained-release formulation, which comprised either 29-mer, 24-mer, or 20-mer. Additionally, in a PEDF 18-mer control group, mice were treated with a sustained-release formulation containing a PEDF 18-mer peptide. Treatments were applied by way of a single intramuscular injection to the gracilis muscle immediately after femoral artery and vein excision operation. The incision was closed after the wound was irrigated with sterile saline.
A laser Doppler perfusion imaging (LDPI) analyzer (Moor Instruments, USA) was used to quantify hindlimb blood perfusion before surgery (pre OP), immediately after surgery (post OP), and over time after surgery. To minimize vasoconstriction by anesthetic heat loss, animals were kept on a heating plate at 37° C. for 5 min before measurement. Representative LDPI images illustrating the blood perfusion of ischemic hindlimbs over a time period of 4 weeks were provided in FIG. 2 in which dark blue color represents low blood flow. Blood perfusion is expressed as LDPI index representing the ratio of operated (ischemic) versus non-operated (non-ischemic) limb blood flow of the same mouse, and the results were summarized in FIG. 3 and Table 1 (n 6).

tibialis anterior muscle = experiment: hindlimb ischemia model, tibialis anterior muscle necrosis/fibrosis and centrally nucleated fibers; assay type: in vivo, C57BL/6 wild-type mice; details: two weeks after surgery, sustained-release formulation (Bolus: bolus 29-mer)
Method: The gracilis, adductor magnus, soleus, and tibialis muscles were fixed in 4% paraformaldehyde, dehydrated with graded ethanol series, and paraffinized. Fixed samples were de-paraffinized in xylene and rehydrated in a graded series of ethanol. Tissues were sliced into 5-μm sections. General histology was performed using H&E dye.
To ascertain the number of centrally nucleated muscle fibers, sections were stained with H&E and then photographed as described above. At least 100 stained fibers were randomly chosen from each photo. Muscle fibers were judged centrally nucleated if one or more nuclei were not located at the periphery of the fiber. The data were expressed as a % of the total number of muscle fibers counted. Results were evaluated from 6 sections per muscle section, and 10 mice at each group.
as §1
In most hindlimb ischemia models, tissue necrosis generally occurs in the muscles below the knee. For example, tibialis anterior muscle, which is distant to the gracilis muscle where the treatment was administered, often undergoes extensive necrosis with regeneration after femoral artery excision. The intensity of Masson's trichrome blue color staining depended on the content of collagen fibers in the investigated tissue, and fibrosis is the result of necrosis. […] Results from representative samples are illustrated in FIGS. 4A and 4B.
Statistical analyses regarding injured area (necrotic area+fibrotic area) and numbers of centrally nucleated fibers were also performed at two weeks after the surgery, and the results were summarized in Table 2. The injured area is expressed as the percent of total stained area (%), and the centrally nucleated fibers is expressed as the total number of muscle fibers counted (%).

tendo Achilles = tendo Achilles injury model, histology and collagen in regenerated area; assay type: in vivo, Sprague-Dawley rats; details: three weeks after tendon injury; for Collagen in Regenerated Area (%): 150 μl sustained-release formulation (Bolus: bolus 29-mer) subcutaneously near tendon lesion
Method: De-paraffinized tendon tissue sections were stained using Masson's Trichrome according to the manufacturer's instructions. For semi-quantitative analysis of collagen area, 10 fields from each slide were randomly selected under a light microscope, and the repairing area per intact tendon area of the cross section (mm^2/mm^2) was measured using the Image-Pro Plus 4.5.1 system.
To investigate the effects of the present PEDF peptides on tendon regeneration, a rat model with tendon injury was established as follows. Adult 10-week-old male Sprague-Dawley rats (total n=50; initial body weight=312±11 g) were anesthetized by an intraperitoneal injection of a xylazine (10 mg/kg). Then, the left tendo Achilles injury was created by full-thickness insertion of an 18-gauge needle through tendo Achilles 1 cm proximal to its insertion into the calcaneum. This created a horizontal (transaction) wound which was flanked by intact tendon tissue on both sides to prevent the retraction of severed ends.
The rats were randomly assigned (n=10/group) to five experimental groups and treated as follows. In the blank control group, the mice were treated with 150 μl of blank alginate gel. For the bolus control group, 150 μl of the bolus formulation (29-mer) was administered. In the treatments groups, the mice received 150 μl of the sustained-release formulation (29-mer, 24-mer, or 20-mer). Treatments were injected subcutaneously near tendon lesion immediately after the injury, and the incision was closed after the wound was irrigated with sterile saline.
Three weeks after tendon injury, histologic analysis was performed to observe the healing of the tendon. As could be seen in the upper panel of FIG. 10, in animals treated with blank control, a broad band of disorganized fibrous scar was formed between the two cut ends, and the pink stained collagen bundle was minimal in the scar tissue. […] Also, the fibrous tissue in the scar was more organized and in parallel direction in the 29-mer treatment group.
Quantitative analysis was also performed to assess the percentage of collagen (%) in the regenerated area, and results were summarized in Table 7.

aortic ring explants = experiment: rat aortic ring sprouting assay (ex vivo neovessel sprouting); assay type: cell-based; details: day 4; 50 ng/ml PEDF peptide, 50 ng/ml VEGF-A, 20 ng/ml FGF-2; MCDB131, 1% FBS, Matrigel
Method: To further confirm the neovessel development promoted by PEDF peptides, rat aortic ring sprouting assay was performed. Thoracic aortas were removed from euthanized rats and gently stripped of peri-aortic fibroadipose tissue. Aortas were sectioned into about 2-mm length rings, which were then embedded in a growth factor-reduced Matrigel. Gels containing the aortic rings were polymerized in 12-well plates incubated at 37° C. for 30 minutes. 1 ml of MCDB131 medium supplemented with 100 units/ml penicillin and […] streptomycin, 1% FBS, and a supplemental agent (50 ng/ml VEGF-A, 20 ng/ml FGF-2, or 50 ng/ml 29-mer, 24-mer, 20-mer, Mo 29-mer, Mo 20-mer, 25-mer, or 18-mer) were added to the Matrigel-containing explants. The cultures were propagated at 37° C. in a humidified incubator for up to 4 days, with media changes every other day. Neovessel sprouting was assessed until day 4 using an inverted microscope platform (Leica) with bright-field optics; representative photographs were provided in FIG. 6. Quantification of neovessel sprouting was assessed using Image-Pro Plus 6.0 software (Dendrites program). The experiment was repeated in triplicate.

| Sequence | Ischemic/Non-ischemic Perfusion Ratio (%) 7 days (ischemic hindlimbs) | Ischemic/Non-ischemic Perfusion Ratio (%) 21 days (ischemic hindlimbs) | Ischemic/Non-ischemic Perfusion Ratio (%) 28 days (ischemic hindlimbs) | Ischemic/Non-ischemic Perfusion Ratio (%) Pre OP (ischemic hindlimbs) | Ischemic/Non-ischemic Perfusion Ratio (%) Post OP (ischemic hindlimbs) | Centrally nucleated fibers (%) (tibialis anterior muscle) | Injured Area (%) (necrotic area + fibrotic area, percent of total stained area) (tibialis anterior muscle) | Collagen in Regenerated Area (%) (tendo Achilles) | tendon healing, histology of cut ends (tendo Achilles; sustained-release formulation, in words) | Neovessel Sprouting Fold (aortic ring explants) |
| --- | --- | --- | --- | --- | --- | --- | --- | --- | --- | --- |
| SLGAEQRTESIIHRALYYDLISSPDIHGT [29-mer, synthetic peptide corresponding to residues 93-121 of human PEDF] | 44.8 ± 2.0 % | 101 ± 7.0 % | 105% and 105 ± 4.8 % | 108.2 ± 8.8% | 7.0 ± 3.1% | 72.5 ± 5.2 % | 39.5 ± 4.2 % | 88.75 ± 1.89% | healed with much lesser scar tissue | 5.6* fold of untreated aortic ring |
| SLGAEQRTESIIHRALYYDL [20-mer, synthetic peptide corresponding to residues 93-112 of human PEDF] | 43.3 ± 7.2 % | 75.5 ± 5.2 % | 93% and 92.7 ± 3.0 % | 98.0 ± 7.8% | 4.6 ± 0.64% | 61.2 ± 5.8 % | 38.0 ± 5.2 % | 82.01 ± 6.55% |  | 6.5* fold of untreated aortic ring |
| SLGAEQRTESIIHRALYYDLISSP [24-mer, synthetic peptide corresponding to residues 93-116 of human PEDF] | 53.1 ± 0.37 % | 86.1 ± 5.9 % | 92% and 91.8 ± 5.5 % | 91.5 ± 5.6% | 8.0 ± 0.03% | 67.8 ± 5.3 % | 36.8 ± 5.5 % | 85.75 ± 2.56% |  | 6.2* fold of untreated aortic ring |
